According to patent US9784740B2 (priority 2013, dated 2017):
“And” between values parts separate entries of the source, which are not always exact repeats. Equal entries are not always repeated. “Also recorded” adds a separate entry of the source. Where two headings read alike, the source gives them in different places.

Key:
[1] = molecular target: T1, human mu opioid receptors (Homo sapiens, UniProt P35372); experiment: Inhibition of forskolin-stimulated cAMP accumulation in CHO-mu cells; details: for EC50: mean (95% CI)
[2] = molecular target: T2, mu-opioid receptor (OPRM1) (Homo sapiens, UniProt P35372); experiment: cell-based
[3] = molecular target: T2, mu-opioid receptor (OPRM1); experiment: β-arrestin recruitment assay (PathHunter) in U2OS-OPRM1 cells; details: for Description (PAM efficacy class / SAM): U2OS-OPRM1, β-arrestin PAM and SAM detection modes; for β-arrestin recruitment, agonist detection mode (compound alone): U2OS-OPRM1 cells, no orthosteric agonist
[4] = molecular target: T2, mu-opioid receptor (OPRM1)
[5] = molecular target: T3, delta opioid receptor (OPRD1) (Homo sapiens, UniProt P41143); experiment: β-arrestin recruitment assay (PathHunter) in U2OS-OPRD1 cells; format: cell-based; details: for β-arrestin recruitment, agonist detection mode: U2OS-OPRD1, no leu-enkephalin; for β-arrestin recruitment, PAM detection mode: U2OS-OPRD1, ~EC10 (0.4 nM) leu-enkephalin
T3 construct: host or cells: U2OS (PathHunter U2OS-OPRD1)

[6] = molecular target: T4, mu-opioid receptor (C6mu membranes) (Rattus norvegicus, UniProt P33535); experiment: [35S]GTPγS binding in C6mu cell membranes; format: biochemical; details: for agonist activity of modulator in [35S]GTPγS binding: modulator alone
T4 construct: expressed in transfected cells; host or cells: C6 glioma cells (membranes)

[7] = molecular target: T1, human mu opioid receptors
[8] = molecular target: T1, human mu opioid receptors; experiment: cell-based
[9] = molecular target: T4, mu-opioid receptor (C6mu membranes); experiment: DAMGO competition binding with [3H]diprenorphine in C6mu membranes; details: 10 uM modulator
[10] = molecular target: T4, mu-opioid receptor (C6mu membranes); format: binding
[11] = molecular target: T5, mu-opioid receptor (mouse brain membranes) (Mus musculus, UniProt P42866); experiment: [35S]GTPγS binding in mouse brain membranes; format: biochemical
T5 construct: membranes from a physiologically relevant tissue with endogenous levels of receptor and G-protein; from tissue; host or cells: mouse whole brain minus cerebellum, membrane homogenate

[12] = C6mu membranes, 10 uM modulator

T5 sequence (P42866 whole entry): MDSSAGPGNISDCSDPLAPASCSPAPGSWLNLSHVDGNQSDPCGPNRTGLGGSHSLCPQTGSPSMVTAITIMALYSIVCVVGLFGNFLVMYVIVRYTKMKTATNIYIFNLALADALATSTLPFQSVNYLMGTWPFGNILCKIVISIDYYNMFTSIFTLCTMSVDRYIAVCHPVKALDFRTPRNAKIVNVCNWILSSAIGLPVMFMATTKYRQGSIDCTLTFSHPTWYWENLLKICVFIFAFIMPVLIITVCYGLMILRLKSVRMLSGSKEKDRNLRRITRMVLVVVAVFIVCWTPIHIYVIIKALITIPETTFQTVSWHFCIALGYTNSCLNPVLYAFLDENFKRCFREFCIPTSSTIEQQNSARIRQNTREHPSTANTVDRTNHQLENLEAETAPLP
T2 sequence (P35372 whole entry): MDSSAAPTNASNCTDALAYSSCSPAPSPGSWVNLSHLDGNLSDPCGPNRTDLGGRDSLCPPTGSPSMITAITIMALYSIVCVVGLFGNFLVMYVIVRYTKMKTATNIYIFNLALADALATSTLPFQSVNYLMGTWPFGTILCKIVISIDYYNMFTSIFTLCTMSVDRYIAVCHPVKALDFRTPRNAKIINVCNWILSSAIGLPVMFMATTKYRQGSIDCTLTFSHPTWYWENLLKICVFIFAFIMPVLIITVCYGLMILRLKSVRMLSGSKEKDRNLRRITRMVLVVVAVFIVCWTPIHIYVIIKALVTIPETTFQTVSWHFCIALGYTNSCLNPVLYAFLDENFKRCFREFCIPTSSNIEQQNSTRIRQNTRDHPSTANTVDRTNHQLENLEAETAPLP
T1 sequence (P35372 whole entry): as above
T3 sequence (P41143 whole entry): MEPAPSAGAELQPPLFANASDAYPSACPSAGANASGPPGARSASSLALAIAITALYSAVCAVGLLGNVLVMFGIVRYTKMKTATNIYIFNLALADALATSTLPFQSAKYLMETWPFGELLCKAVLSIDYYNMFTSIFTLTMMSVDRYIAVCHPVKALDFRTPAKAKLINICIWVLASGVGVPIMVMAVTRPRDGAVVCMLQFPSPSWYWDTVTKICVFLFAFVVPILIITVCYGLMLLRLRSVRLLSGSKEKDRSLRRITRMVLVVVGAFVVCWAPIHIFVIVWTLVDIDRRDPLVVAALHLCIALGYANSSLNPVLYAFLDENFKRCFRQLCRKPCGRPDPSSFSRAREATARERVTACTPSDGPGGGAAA
T4 sequence (P33535 whole entry): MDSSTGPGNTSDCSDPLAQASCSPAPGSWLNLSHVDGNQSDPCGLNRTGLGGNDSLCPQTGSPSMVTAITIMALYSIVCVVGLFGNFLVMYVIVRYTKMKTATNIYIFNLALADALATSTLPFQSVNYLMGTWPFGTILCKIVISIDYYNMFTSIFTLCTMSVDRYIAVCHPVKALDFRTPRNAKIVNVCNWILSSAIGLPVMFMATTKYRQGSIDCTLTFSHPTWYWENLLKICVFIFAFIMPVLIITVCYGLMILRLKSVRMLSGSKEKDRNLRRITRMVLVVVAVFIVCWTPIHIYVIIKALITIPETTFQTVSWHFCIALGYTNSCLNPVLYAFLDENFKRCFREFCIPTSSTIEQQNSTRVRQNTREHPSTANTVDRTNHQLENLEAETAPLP

Compound: endomorphin-I [reference compound]
- reduction in forskolin-stimulated cAMP accumulation ([1]; CHO-mu, 1 uM forskolin): 17 fold
- potency in cAMP assay (CHO) relative to arrestin recruitment (U2OS PathHunter) ([1]; cAMP inhibition vs β-arrestin recruitment): ~1000 fold

Compound: COc1ccc(S(=O)(=O)N2CCSC2c2ccc(Br)cc2)cc1 (stereo not drawn) [Analog 14]
- EC50 [2]: 7 µM
- Description (PAM efficacy class / SAM) [3]: Weak PAM

Compound: COc1ccc(C2SCCN2S(=O)(=O)c2ccc(Br)cc2)cc1OC (racemic) [Analog 8]
- EC50 [4]: 14 µM
- Description (PAM efficacy class / SAM) [3]: Weak PAM

Compound: COc1cc(Br)ccc1C1SCCN1S(=O)(=O)c1ccc(Cl)cc1 (racemic) [BMS-986124]
- β-arrestin recruitment, agonist detection mode [5]: no activity
- β-arrestin recruitment, PAM detection mode [5]: no activity
- effect on DAMGO potency in [35S]GTPγS assay [6, 12]: not significantly increased
- effect on morphine Emax in [35S]GTPγS assay [6, 12]: increased morphine Emax to a small degree
- effect on morphine potency in [35S]GTPγS assay [6, 12]: not significantly increased
- effect on DAMGO-stimulated [35S]GTPγS binding potency ([6]; C6mu membranes, 50 uM BMS-986124 alone): not affected
- agonist activity of modulator in [35S]GTPγS binding ([6]; C6mu membranes): No significant agonist activity was detected
- antagonist/NAM detection mode: effect on EC80 endomorphin-I response ([3]; U2OS-OPRM1, 300 nM endomorphin-I): no significant effect; also recorded: Neither compound significantly inhibited; also recorded: no NAM/antagonist activity
- SAM detection mode: inhibition of BMS-986122 PAM response ([3]; U2OS-OPRM1, 12.5 uM (~EC80) BMS-986122 plus 30 nM (~EC20) endomorphin-I): able to inhibit the PAM response; also recorded: inhibited PAM responses
- Description (PAM efficacy class / SAM) [3]: SAM
- β-arrestin recruitment, agonist detection mode (compound alone) [3]: no activity
- Kb ([3]; read-out: β-arrestin SAM Detection Mode (Kb), U2OS-OPRM1, inhibition of BMS-986122 (~EC80) response with ~EC20 endomorphin-I, Kb calculated from IC50): 2 µM

Compound: COc1ccc(C2SCCN2S(=O)(=O)c2ccc(OC)cc2)cc1 (stereo not drawn) [Analog 15]
- EC50 [2]: 37 µM
- Description (PAM efficacy class / SAM) [3]: Weak PAM

Compound: COc1ccc(C2SCCN2S(=O)(=O)c2ccc([N+](=O)[O-])cc2)cc1Br (stereo not drawn) [Analog 1]
- EC50 [2]: 2 µM
- Description (PAM efficacy class / SAM) [3]: Moderate PAM

Compound: COc1ccc(C2SCCN2S(=O)(=O)c2ccc(C)cc2)cc1Br (stereo not drawn) [Analog 2]
- EC50 [2]: 4 µM
- Description (PAM efficacy class / SAM) [3]: Weak PAM

Compound: O=S(=O)(c1ccc(Cl)cc1)N1CCSC1c1cccc(Cl)c1 (stereo not drawn) [Analog 11]
- EC50 [2]: 5 µM
- Description (PAM efficacy class / SAM) [3]: Strong PAM

Compound: O=[N+]([O-])c1ccc(-c2csc(=Nc3c(Cl)cccc3Cl)[nH]2)cc1 [BMS-986121]
- EC50 [4]: 1 µM and 1.7 µM
- Emax [4]: 72%
- leftward shift in potency of endomorphin-I ([1]; CHO-mu, 100 uM modulator): 4 fold and 4.3 fold
- leftward shift in potency of leu-enkephalin ([1]; CHO-mu, 100 uM modulator): 4.5 fold
- leftward shift in potency of morphine ([1]; CHO-mu, 100 uM modulator): 6.5 fold
- Emax of agonist activity (agonist detection mode) ([1]; CHO-mu, no orthosteric agonist, 100% = 10 nM endomorphin-I): 35 (6-63) %
- EC50 ([1]; read-out: EC50 of agonist activity (agonist detection mode), CHO-mu, no orthosteric agonist): 14 µM
- β-arrestin recruitment, agonist detection mode [5]: Neither compound had any significant effect
- β-arrestin recruitment, PAM detection mode [5]: Neither compound had any significant effect
- EC50 [7]: 2.2 µM
- effect of modulator on maximal stimulation by DAMGO [6, 12]: not affected
- increase in morphine potency [6, 12]: 2.5 fold
- leftward shift in DAMGO CRC (potency) [6, 12]: 4 fold
- agonist activity of modulator in [35S]GTPγS binding ([6]; C6mu membranes): No significant agonist activity was detected
- β-arrestin recruitment, agonist detection mode (compound alone) [3]: Neither BMS-986121 nor BMS-986122 produced significant β-arrestin recruitment on their own

Compound: COc1ccc(C2SCCN2S(=O)(=O)c2ccc(Br)cc2)cc1 (stereo not drawn) [Analog 9]
- EC50 [2]: 7 µM
- Description (PAM efficacy class / SAM) [3]: Moderate PAM

Compound: COc1ccc(C2SCCN2S(=O)(=O)c2cccc(C)c2)cc1Br (stereo not drawn) [Analog 4]
- EC50 [2]: 9 µM
- Description (PAM efficacy class / SAM) [3]: Weak PAM

Compound: C[C@@H](NC(=O)[C@@H](N)Cc1ccc(O)cc1)C(=O)NCC(=O)N(C)[C@@H](Cc1ccccc1)C(=O)NCCO [DAMGO, reference compound]
- stimulation of [35S]GTPγS binding above basal activity ([6]; C6mu membranes, 10 uM DAMGO, 5 min): 250%
- Emax ([6]; read-out: maximal stimulation by DAMGO, control): 232%

Compound: O=S(=O)(c1ccc(Cl)cc1)N1CCSC1c1ccc(Br)cc1 (stereo not drawn) [Analog 12]
- EC50 [2]: 6 µM
- Description (PAM efficacy class / SAM) [3]: Weak PAM

Compound: COc1ccc(C2SCCN2S(=O)(=O)c2ccc(Cl)cc2)cc1Br (stereo not drawn) [BMS-986122]
- EC50 [8]: 8.9 µM
- EC50 [2]: 3 µM and 4.9 µM
- Emax [4]: 79%
- increase in the affinity of DAMGO [9]: 6 fold
- EC50 ([1]; EC50 of agonist activity (agonist detection mode), CHO-mu, no orthosteric agonist): 41 µM
- Emax ([1]; read-out: Emax of agonist activity (agonist detection mode)): 60%
- effect on [3H]diprenorphine binding affinity [10]: no significant effect; also recorded: did not affect; also recorded: had no effect
- agonist activity of modulator [11]: No agonist activity was observed
- leftward shift in DAMGO potency ([11]; 10 uM modulator): 4.5 fold
- effect on basal [35S]GTPγS binding ([11]; 10 uM modulator, basal 4.8±0.4 fmol bound/mg protein): not affected
- β-arrestin recruitment, agonist detection mode [5]: Neither compound had any significant effect
- β-arrestin recruitment, PAM detection mode [5]: Neither compound had any significant effect
- effect of modulator on maximal stimulation by DAMGO [6, 12]: not affected
- increase in morphine potency [6, 12]: 3 fold
- leftward shift in DAMGO CRC (potency) [6, 12]: 8 fold and 7 fold
- agonist activity of modulator in [35S]GTPγS binding ([6]; C6mu membranes): No significant agonist activity was detected
- Description (PAM efficacy class / SAM) [3]: Full PAM (ref)
- β-arrestin recruitment, agonist detection mode (compound alone) [3]: Neither BMS-986121 nor BMS-986122 produced significant β-arrestin recruitment on their own

Compound: COc1ccc(C2SCCN2S(=O)(=O)c2ccccc2)cc1 (stereo not drawn) [Analog 10]
- EC50 [2]: 23 µM
- Description (PAM efficacy class / SAM) [3]: Weak PAM

Compound: COc1ccc(C2SCCN2S(=O)(=O)c2ccc(Cl)cc2)cc1[N+](=O)[O-] (stereo not drawn) [Analog 5]
- EC50 [2]: 4 µM
- Description (PAM efficacy class / SAM) [3]: Moderate PAM

Compound: COc1ccc(S(=O)(=O)N2CCSC2c2ccc(OC)c(Br)c2)cc1 (stereo not drawn) [Analog 3]
- EC50 [2]: 6 µM
- Description (PAM efficacy class / SAM) [3]: Weak PAM

Compound: COc1ccc(C2SCCN2S(=O)(=O)c2ccc(Br)cc2)cc1[N+](=O)[O-] (stereo not drawn) [Analog 6]
- EC50 [2]: 2 µM
- Description (PAM efficacy class / SAM) [3]: Moderate PAM
